Experimental data from US8946217B2, “Pharmaceutical compounds” (F. Hoffman-La Roche AG, priority 2005, dated 2015).

System: Caco-2 cells
Experiment: Caco-2 permeability
Format: in vitro ADME
Details: bidirectional Caco-2 assay
Protocol: Caco-2 cells were seeded onto Millipore Multiscreen plates at 1×10^5 cells/cm^2, and were cultured for 20 days. Assessment of compound permeability was subsequently conducted. The compounds were applied to the apical surface (A) of cell monolayers and compound permeation into the basolateral (B) compartment was measured. This was performed in the reverse direction (B-A) to investigate active transport. A permeability coefficient value, Papp, for each compound, a measure of the rate of permeation of the compound across the membrane, was calculated. Compounds were grouped into low (Papp</=[…]) or high (Papp>/=[…]) absorption potential based on comparison with control compounds with established human absorption.
For assessment of a compound's ability to undergo active efflux, the ratio of basolateral (B) to apical (A) transport compared with A to B was determined. Values of B-A/A-B>/=1.0 indicated the occurrence of active cellular efflux. All of the compounds tested through the Caco-2 permeability screen had Papp values >/=[…].

- B-A/A-B asymmetry index: less than 1.0
SMILES: CN1CCN(Cc2cc3nc(-c4cccc(O)c4)nc(N4CCOCC4)c3s2)CC1 [PI540]
